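Tested at 5 concentrations; 48 h exposure; 96-well plates; endpoints linearly interpolated, else capped at highest concentration. At the TGI there is no net growth.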
Legend:
Assay in all cases: DTP human tumour cell line panel, 48 h
HOP-92 NSCLC = test system: HOP-92 NSCLC
CCRF-CEM leukemia = test system: CCRF-CEM leukemia
SK-MEL-28 melanoma = test system: SK-MEL-28 melanoma
PC-3 prostate = test system: PC-3 prostate
ACHN renal = test system: ACHN renal
OVCAR-8 ovarian = test system: OVCAR-8 ovarian
NCI-H23 lung = test system: NCI-H23 lung
T-47D breast = test system: T-47D breast
DU-145 prostate = test system: DU-145 prostate
M14 melanoma = test system: M14 melanoma
A549 NSCLC = test system: A549 NSCLC
HS 578T breast = test system: HS 578T breast
NCI/ADR-RES ovarian = test system: NCI/ADR-RES ovarian
UACC-257 melanoma = test system: UACC-257 melanoma
HCT-116 colon = test system: HCT-116 colon
OVCAR-3 ovarian = test system: OVCAR-3 ovarian
CAKI-1 renal = test system: CAKI-1 renal
NCI-H522 lung = test system: NCI-H522 lung
EKVX NSCLC = test system: EKVX NSCLC
SR leukemia = test system: SR leukemia

Row | Compound | TGI (HOP-92 NSCLC) | TGI (CCRF-CEM leukemia) | TGI (SK-MEL-28 melanoma) | TGI (PC-3 prostate) | TGI (ACHN renal) | TGI (OVCAR-8 ovarian) | TGI (NCI-H23 lung) | TGI (T-47D breast) | TGI (DU-145 prostate) | TGI (M14 melanoma) | TGI (A549 NSCLC) | TGI (HS 578T breast) | TGI (NCI/ADR-RES ovarian) | TGI (UACC-257 melanoma) | TGI (HCT-116 colon) | TGI (OVCAR-3 ovarian) | TGI (CAKI-1 renal) | TGI (NCI-H522 lung) | TGI (EKVX NSCLC) | TGI (SR leukemia)
1 | O=C1c2ccccc2S(=O)(=O)c2c1cccc2[N+](=O)[O-] | 9 µM | 4.19 µM | 5.25 µM | > 9.02 µM | 8.04 µM | 5.46 µM | > 8.17 µM | 5.9 µM | > 10 µM | 3.4 µM | > 10 µM | > 10 µM | 6.55 µM | 4.76 µM | 2.63 µM | 2.51 µM | 9.83 µM | 3.09 µM | > 8.6 µM | 5.28 µM
2 | COC(=O)C(CC12CC3CC(CC(C3)C1)C2)NC(=O)C(N)CC(=O)O (configuration not stated) | > 100 µM | > 100 µM | > 100 µM | > 100 µM | > 100 µM | > 100 µM | > 100 µM | > 100 µM | > 100 µM | – | > 100 µM | > 100 µM | > 100 µM | > 100 µM | > 100 µM | – | > 100 µM | > 100 µM | > 100 µM | > 100 µM
3 | O=C(/C=C/c1ccccc1)/C=N/N1C(=S)N(c2ccccc2)C(=Nc2ccccc2)C1=Nc1ccccc1 | > 100 µM | – | > 100 µM | > 100 µM | > 100 µM | > 100 µM | > 100 µM | > 100 µM | > 100 µM | > 100 µM | > 100 µM | > 100 µM | > 100 µM | > 100 µM | > 100 µM | > 100 µM | > 100 µM | 62.9 µM | > 100 µM | > 100 µM

— PubChem BioAssay (NCI)
